In this test the target is T1, PAD1 (Homo sapiens, UniProt Q9ULC6).
T1 construct: made in house
T1 sequence (Q9ULC6 1-663): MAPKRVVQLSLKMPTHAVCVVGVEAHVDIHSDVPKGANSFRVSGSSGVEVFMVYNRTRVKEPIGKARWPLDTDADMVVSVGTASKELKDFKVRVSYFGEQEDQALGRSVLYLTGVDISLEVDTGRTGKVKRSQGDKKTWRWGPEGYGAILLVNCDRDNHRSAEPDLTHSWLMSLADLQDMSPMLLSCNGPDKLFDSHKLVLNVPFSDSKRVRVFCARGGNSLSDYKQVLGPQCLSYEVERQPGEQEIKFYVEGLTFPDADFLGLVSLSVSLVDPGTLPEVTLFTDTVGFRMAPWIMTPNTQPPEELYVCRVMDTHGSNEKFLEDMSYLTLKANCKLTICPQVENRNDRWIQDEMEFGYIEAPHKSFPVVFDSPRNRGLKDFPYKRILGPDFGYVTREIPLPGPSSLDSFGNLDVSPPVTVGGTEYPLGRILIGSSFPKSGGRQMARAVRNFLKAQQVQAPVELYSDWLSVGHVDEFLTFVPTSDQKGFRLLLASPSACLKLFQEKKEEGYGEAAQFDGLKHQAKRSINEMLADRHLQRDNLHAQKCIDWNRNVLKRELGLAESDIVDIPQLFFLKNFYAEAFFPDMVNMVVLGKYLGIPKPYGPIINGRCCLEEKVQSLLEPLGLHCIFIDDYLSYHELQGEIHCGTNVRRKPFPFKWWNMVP
The experiment in a line: Limit of detection for in vitro labelling of recombinant PAD1 by probe. Format: binding. The following applies: 10 μM probe, conjugated with TAMRA-N3 using CuAAC. On the procedure:
Dose-dependent in vitro Labelling of Recombinant PADs with 21 and 22. A PAD (1.4 μM) was added to a prewarmed (10 min at 37° C.) reaction mixture (25 mM TRIS pH 7.4, 10 mM NaCl, and 5 mM CaCl2) containing various concentrations of 21 or 22 (or equal volume of DMSO for control). The mixture was incubated at 37° C. for 15 min. Then TAMRA-N3 (50 μM), TCEP (1 mM), TBTA (0.3 mM) and freshly prepared copper (II) sulphate (1 mM) were sequentially added to the reaction mixture and the tubes were gently tumbled at room temperature for 2 h. Then the reactions were quenched with 5×SDS-PAGE loading dye, heated at 95° C. for 15 min and loaded onto 4-15% gradient SDS-PAGE gel. Protein bands were visualized by recording in-gel fluorescence using a typhoon scanner (approximate excitation/emission maxima ˜546/579, respectively). All the experiments were performed at least in duplicate.
Limit of Detection for in vitro Labelling of Recombinant PADs with 21 and 22. Various concentrations of PAD were added to prewarmed (10 min at 37° C.) reaction mixtures (25 mM TRIS pH 7.4, 10 mM NaCl, 5 mM CaCl2) containing 10 μM of 21 or 22. […] Protein bands were visualized by recording in-gel fluorescence using a typhoon scanner (approximate excitation/emission maxima ˜546/579, respectively). […]

The structures appear in SMILES notation.

In the case of `C#Cc1c(I)cc(C(=O)N[C@@H](CCCNC(=N)CF)c2nc3ccccc3[nH]2)c(O)c1I` [Compound 21], the “limit of detection (LOD) of recombinant PAD1” value amounted to 4.3 pmol.

Source of the values: US12448358B2, “Inhibitors of protein arginine deiminase 1 and methods of preparation and use thereof” (University of Massachusetts, priority 2019, dated 2025).
